We go through one molecule from paper PMC11370402 (bioRxiv, 2024).

In the experiment the test system is human tracheobronchial epithelial cells (hTECs) basal-ESC growth. The experiment is described as follows: hTEC growth in submerged 2D culture. The format is cell-based.

For `O=c1ncn2nc(Sc3ccc(F)cc3F)ccc2c1-c1c(Cl)cccc1Cl` [NuP-401, VX-745], the “effect on basal cell growth” value is “not found”.
